Laboratory results reported in PubChem BioAssay (NCI).
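A five-concentration, 48-hour dose response in 96-well plates underlies each endpoint, interpolated linearly between surrounding concentrations. Here, GI50 denotes the concentration required for 50% inhibition of growth. Definition used: TGI = concentration required for complete inhibition of growth.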

Experiments:
Assay in all cases: NCI-60 cell line screen, 48 h
[1] = system: MDA-MB-435
[2] = system: UACC-257 melanoma
[3] = system: MOLT-4 leukemia
[4] = system: OVCAR-8 ovarian
[5] = system: MALME-3M melanoma
[6] = system: NCI/ADR-RES ovarian
[7] = system: OVCAR-3 ovarian
[8] = system: 786-0 renal
[9] = system: HL-60(TB) leukemia
[10] = system: SK-OV-3 ovarian
[11] = system: HOP-62 NSCLC
[12] = system: OVCAR-5 ovarian
[13] = system: SF-539 CNS
[14] = system: MCF7 breast
[15] = system: SNB-19 CNS
[16] = system: UO-31 renal
[17] = system: A498 renal
[18] = system: SW-620 colon
[19] = system: T-47D breast
[20] = system: SR leukemia
[21] = system: HCT-116 colon
[22] = system: KM12 colon
[23] = system: SF-268 CNS
[24] = system: LOX IMVI melanoma
[25] = system: SNB-75 CNS
[26] = system: SK-MEL-28 melanoma

CC(=O)O[C@H]1CC[C@@]2(C)[C@@H](CC[C@@H]3[C@@H]2CC[C@]2(C)C=C(C=O)C[C@@H]32)C1
GI50 [1]: 5.01 µM | TGI [1]: 19.2 µM | GI50 [2]: 12.2 µM | TGI [2]: 26.3 µM | GI50 [3]: 2.61 µM | TGI [3]: 7.33 µM | GI50 [4]: 2.96 µM | TGI [4]: 9.59 µM | GI50 [5]: 3.64 µM | TGI [5]: 12.6 µM | GI50 [6]: 5.35 µM | TGI [6]: > 100 µM | GI50 [7]: 3.1 µM | TGI [7]: 9.04 µM | GI50 [8]: 19.5 µM | TGI [8]: 37.3 µM | GI50 [9]: 2.2 µM | TGI [9]: 5.87 µM | GI50 [10]: 9.67 µM | TGI [10]: 21.7 µM | GI50 [11]: 10.5 µM | TGI [11]: 23.1 µM | GI50 [12]: 13.2 µM | TGI [12]: 34.4 µM | GI50 [13]: 3.66 µM | TGI [13]: 12.7 µM | GI50 [14]: 2.58 µM | TGI [14]: 10.8 µM | GI50 [15]: 14.5 µM | TGI [15]: 30.8 µM | GI50 [16]: 18.8 µM | TGI [16]: 35.3 µM | GI50 [17]: 94.6 µM | TGI [17]: > 100 µM | GI50 [18]: 3.42 µM | TGI [18]: 10.7 µM | GI50 [19]: 3.74 µM | TGI [19]: 15.5 µM | GI50 [20]: 3.19 µM | TGI [20]: 9.94 µM | GI50 [21]: 1.66 µM | TGI [21]: 3.42 µM | GI50 [22]: 12.7 µM | TGI [22]: 30 µM | GI50 [23]: 3.3 µM | TGI [23]: 11.2 µM | GI50 [24]: 1.75 µM | TGI [24]: 3.54 µM | GI50 [25]: 9.36 µM | TGI [25]: 22.2 µM | GI50 [26]: 3.98 µM | TGI [26]: 13.5 µM
